Source: US12692238B2, “Substituted pyridazinone herbicides” (FMC CORPORATION, priority 2020, dated 2026)

Key:
Format in all cases: in vivo
[1] = system: sedge, umbrella (small-flower umbrella sedge, Cyperus difformis); assay: Test B flooded paddy test, sedge, umbrella; conditions: 250 g ai/ha, Flood; visually evaluated after 10 to 14 days
Method: (§1) Plant species in the flooded paddy test selected from barnyardgrass (Echinochloa crus-galli), ducksalad (Heteranthera limosa), rice (Oryza sativa), and sedge, umbrella (small-flower umbrella sedge, Cyperus difformis) were grown to the 2-leaf stage for testing. At time of treatment, test pots were flooded to 3 cm above the soil surface, treated by application of test compounds directly to the paddy water, and then maintained at that water depth for the duration of the test. Treated plants and controls were maintained in a greenhouse for 10 to 14 days, after which time all species were compared to controls and visually evaluated. Plant response ratings, summarized in Table B, are based on a scale of 0 to 100 where 0 is no effect and 100 is complete control. A dash (-) response means no test result.

[2] = system: wheat (Triticum aestivum); assay: Test A postemergence, wheat; conditions: 10 days
Excerpt: (§2) Seeds of plant species selected from barnyardgrass (Echinochloa crus-galli), blackgrass (Alopecurus myosuroides), corn (Zea mays), foxtail, giant (giant foxtail, Setaria faberi), foxtail, green (green foxtail, Setaria viridis), goosegrass (Eleusine indica), kochia (Bassia scoparia), oat, wild (wild oat, Avena fatua), palmer amaranth (pigweed, palmer, Amaranthus palmeri), redroot pigweed (Amaranthus retroflexus), ragweed (common ragweed, Ambrosia artemisiifolia), ryegrass, Italian (Italian ryegrass, Lolium multiflorum), and soybean (Glycine max) were planted into a blend of loam soil and sand and treated preemergence with a directed soil spray using test chemicals formulated in a non-phytotoxic solvent mixture which included a surfactant.
(§3) At the same time, plants selected from these crop and weed species and also wheat (Triticum aestivum), galium (catchweed bedstraw, Galium aparine) and horseweed (Erigeron canadensis) were planted in pots containing the same blend of loam soil and sand and treated with postemergence applications of test chemicals formulated in the same manner. Plants ranged in height from 2 to 10 cm and were in the one- to two-leaf stage for the postemergence treatment. Treated plants and untreated controls were maintained in a greenhouse for 10 days, after which time all treated plants were compared to untreated controls and visually evaluated for injury. Plant response ratings, summarized in Table A, are based on a 0 to 100 scale where 0 is no effect and 100 is complete control. A dash (-) response means no test result.

[3] = system: blackgrass (Alopecurus myosuroides); assay: Test A postemergence, blackgrass; conditions: 10 days
Excerpt: as §2, §3

[4] = system: ryegrass, Italian (Italian ryegrass, Lolium multiflorum); assay: Test A preemergence, ryegrass, Italian; conditions: 0 to 100 scale, 10 days
Excerpt: as §2, §3

[5] = system: barnyardgrass (Echinochloa crus-galli); assay: Test B flooded paddy test, barnyardgrass; conditions: 250 g ai/ha, Flood; visually evaluated after 10 to 14 days
Method: as §1

[6] = system: galium (catchweed bedstraw, Galium aparine); assay: Test A postemergence, galium; conditions: 10 days
Excerpt: as §2, §3

[7] = system: ragweed (common ragweed, Ambrosia artemisiifolia); assay: Test A preemergence, ragweed; conditions: 0 to 100 scale, 10 days
Excerpt: as §2, §3

[8] = system: ryegrass, Italian (Italian ryegrass, Lolium multiflorum); assay: Test A postemergence, ryegrass, Italian; conditions: 10 days
Excerpt: as §2, §3

[9] = system: foxtail, giant (giant foxtail, Setaria faberi); assay: Test A preemergence, foxtail, giant; conditions: 0 to 100 scale, 10 days
Excerpt: as §2, §3

[10] = system: redroot pigweed (Amaranthus retroflexus); assay: Test A preemergence, redroot pigweed; conditions: 0 to 100 scale, 10 days
Excerpt: as §2, §3

[11] = system: foxtail, giant (giant foxtail, Setaria faberi); assay: Test A postemergence, foxtail, giant; conditions: 10 days
Excerpt: as §2, §3

[12] = system: barnyardgrass (Echinochloa crus-galli); assay: Test A preemergence, barnyardgrass; conditions: 10 days
Excerpt: as §2, §3

kochia (Bassia scoparia) [13] = assay: Test A preemergence, kochia; conditions: 0 to 100 scale, 10 days
Excerpt: as §2, §3

[14] = system: ducksalad (Heteranthera limosa); assay: Test B flooded paddy test, ducksalad; conditions: 250 g ai/ha, Flood; visually evaluated after 10 to 14 days
Method: as §1

[15] = system: ragweed (common ragweed, Ambrosia artemisiifolia); assay: Test A postemergence, ragweed; conditions: 10 days
Excerpt: as §2, §3

[16] = system: barnyardgrass (Echinochloa crus-galli); assay: Test A postemergence, barnyardgrass; conditions: 10 days
Excerpt: as §2, §3

[17] = system: redroot pigweed (Amaranthus retroflexus); assay: Test A postemergence, redroot pigweed; conditions: 10 days
Excerpt: as §2, §3

corn (Zea mays) = assay: Test A postemergence, corn; conditions: 10 days
Excerpt: as §2, §3

kochia (Bassia scoparia) [18] = assay: Test A postemergence, kochia; conditions: 10 days
Excerpt: as §2, §3

rice (Oryza sativa) = assay: Test B flooded paddy test, rice; conditions: 250 g ai/ha, Flood; visually evaluated after 10 to 14 days
Method: as §1

[19] = 31 g ai/ha, postemergence, 0 to 100 scale (0 no effect, 100 complete control)
[20] = Postemergence, 125 g ai/ha, 0 to 100 scale
[21] = 125 g ai/ha, 0 to 100 scale (0 no effect, 100 complete control)
[22] = Postemergence, 31 g ai/ha, 0 to 100 scale

SMILES	Plant response rating, Sedge, Umbrella (0 to 100 scale where 0 is no effect and 100 is complete control) [1]	Plant response rating, Wheat [2, 19]	Plant response rating, Wheat [2, 20]	Plant response rating, Blackgrass [3, 20]	Plant response rating, Ryegrass, Italian ([4]; 31 g ai/ha)	Plant response rating, Ryegrass, Italian ([4]; 125 g ai/ha)	Plant response rating, Barnyardgrass (0 to 100 scale where 0 is no effect and 100 is complete control) [5]	Plant response rating, Galium [6, 19]	Plant response rating, Galium [6, 20]	Plant response rating, Ragweed ([7]; 31 g ai/ha)	Plant response rating, Ragweed ([7]; 125 g ai/ha)	Plant response rating, Ryegrass, Italian [8, 19]	Plant response rating, Ryegrass, Italian [8, 20]	Plant response rating, Foxtail, Giant ([9]; 31 g ai/ha)	Plant response rating, Foxtail, Giant ([9]; 125 g ai/ha)	Plant response rating, Pigweed, Redroot ([10]; 31 g ai/ha)	Plant response rating, Pigweed, Redroot ([10]; 125 g ai/ha)	Plant response rating, Foxtail, Giant [11, 20]	Plant response rating, Barnyardgrass ([12]; 31 g ai/ha, 0 to 100 scale)	Plant response rating, Barnyardgrass [12, 21]	also measured
CC(=O)OCOc1c(Cl)nn(C)c(=O)c1-c1c2cc(C)ccc2cc2ccc(C)cc12 [Compound 23]	75	0	0	20	0	0	60	70	100	40	90	0	40	0	20	100	100	50	30	80	Plant response rating, Blackgrass [3, 19]: 40; Plant response rating, Foxtail, Giant [11, 19]: 0; Plant response rating, Kochia (kochia (Bassia scoparia) [13]; 31 g ai/ha): 60; Plant response rating, Kochia (kochia (Bassia scoparia) [13]; 125 g ai/ha): 90; Plant response rating, Ducksalad (0 to 100 scale where 0 is no effect and 100 is complete control) [14]: 95; Plant response rating, Ragweed [15, 19]: 70; Plant response rating, Ragweed [15, 20]: 100; Plant response rating, Barnyardgrass [16, 19]: 30; Plant response rating, Barnyardgrass [16, 20]: 90; Plant response rating, Pigweed, Redroot [17, 19]: 100; Plant response rating, Pigweed, Redroot [17, 20]: 100; Plant response rating, Corn (corn (Zea mays); [19]): 0; Plant response rating, Corn (corn (Zea mays); [20]): 40; Plant response rating, Kochia (kochia (Bassia scoparia) [18]; [19]): 20; Plant response rating, Kochia (kochia (Bassia scoparia) [18]; [20]): 80; Plant response rating, Rice (0 to 100 scale where 0 is no effect and 100 is complete control) (rice (Oryza sativa)): 0
COc1ccc2cc3ccc(F)cc3c(-c3c(OCOC(C)=O)c(C)nn(C)c3=O)c2c1 [Compound 26]	85	20	60	10	10	90	60	80	100	30	30	20	90	20	90	100	100	70	10	70	Plant response rating, Blackgrass [3, 19]: 0; Plant response rating, Foxtail, Giant [11, 19]: 20; Plant response rating, Kochia (kochia (Bassia scoparia) [13]; 31 g ai/ha): 20; Plant response rating, Kochia (kochia (Bassia scoparia) [13]; 125 g ai/ha): 90; Plant response rating, Ducksalad (0 to 100 scale where 0 is no effect and 100 is complete control) [14]: 80; Plant response rating, Ragweed [15, 19]: 90; Plant response rating, Ragweed [15, 20]: 100; Plant response rating, Barnyardgrass [16, 19]: 20; Plant response rating, Barnyardgrass [16, 20]: 40; Plant response rating, Pigweed, Redroot [17, 19]: 100; Plant response rating, Pigweed, Redroot [17, 20]: 100; Plant response rating, Corn (corn (Zea mays); [19]): 0; Plant response rating, Corn (corn (Zea mays); [20]): 10; Plant response rating, Kochia (kochia (Bassia scoparia) [18]; [19]): 40; Plant response rating, Kochia (kochia (Bassia scoparia) [18]; [20]): 80; Plant response rating, Rice (0 to 100 scale where 0 is no effect and 100 is complete control) (rice (Oryza sativa)): 10
CC(=O)OCOc1c(C)nn(C)c(=O)c1-c1c2cc(F)ccc2cc2c(C)cc(C)cc12 [Compound 27]	65	0	0	0	10	90	0	70	100	50	100	100	100	0	70	100	100	30	0	30	Plant response rating, Blackgrass [3, 19]: 0; Plant response rating, Foxtail, Giant [11, 19]: 0; Plant response rating, Kochia (kochia (Bassia scoparia) [13]; 31 g ai/ha): 0; Plant response rating, Kochia (kochia (Bassia scoparia) [13]; 125 g ai/ha): 80; Plant response rating, Ducksalad (0 to 100 scale where 0 is no effect and 100 is complete control) [14]: 65; Plant response rating, Ragweed [15, 19]: 90; Plant response rating, Ragweed [15, 20]: 90; Plant response rating, Barnyardgrass [16, 19]: 20; Plant response rating, Barnyardgrass [16, 20]: 30; Plant response rating, Pigweed, Redroot [17, 19]: 100; Plant response rating, Pigweed, Redroot [17, 20]: 100; Plant response rating, Corn (corn (Zea mays); [19]): 0; Plant response rating, Corn (corn (Zea mays); [20]): 10; Plant response rating, Kochia (kochia (Bassia scoparia) [18]; [19]): 10; Plant response rating, Kochia (kochia (Bassia scoparia) [18]; [20]): 70; Plant response rating, Rice (0 to 100 scale where 0 is no effect and 100 is complete control) (rice (Oryza sativa)): 15
CC(=O)OCOc1c(C)nn(C)c(=O)c1-c1c2ccccc2c(Cl)c2ccccc12 [Compound 12]	85	0	10	30	70	90	0	100	100	60	80	80	100	10	80	100	100	80	20	90	Plant response rating, Blackgrass [3, 22]: 0; Plant response rating, Foxtail, Giant [11, 22]: 20; Plant response rating, Kochia (kochia (Bassia scoparia) [13]; 31 g ai/ha): 0; Plant response rating, Kochia (kochia (Bassia scoparia) [13]; 125 g ai/ha): 100; Plant response rating, Ducksalad (0 to 100 scale where 0 is no effect and 100 is complete control) [14]: 70; Plant response rating, Ragweed [15, 19]: 90; Plant response rating, Ragweed [15, 20]: 100; Plant response rating, Barnyardgrass [16, 22]: 10; Plant response rating, Barnyardgrass [16, 20]: 60; Plant response rating, Pigweed, Redroot [17, 19]: 100; Plant response rating, Pigweed, Redroot [17, 20]: 100; Plant response rating, Corn (corn (Zea mays); [22]): 0; Plant response rating, Corn (corn (Zea mays); [20]): 10; Plant response rating, Kochia (kochia (Bassia scoparia) [18]; [19]): 40; Plant response rating, Kochia (kochia (Bassia scoparia) [18]; [20]): 80; Plant response rating, Rice (0 to 100 scale where 0 is no effect and 100 is complete control) (rice (Oryza sativa)): 0
